In data set [1] the test system is β-D-glucuronidase (bovine liver). The experiment in a line: Glycosidase inhibition (Table 2 panel). In kind it is biochemical. The text has this: (§1) The enzymes α-D-glucosidase (yeast), β-D-glucosidases (almond, bovine liver), α-D-galactosidase (coffee beans), β-D-galactosidase (bovine liver), α-D-mannosidase (Jack bean), β-D-mannosidase (snail), α-L-rhamnosidase (P. decumbens), α-L-fucosidase (bovine kidney), trehalase (porcine kidney), β-D-glucuronidases (E. coli, bovine liver), amyloglucosidase (A. niger), para-nitrophenyl glycosides, and various disaccharides were purchased from Sigma-Aldrich Co (St. Louis, MO, USA).
(§2) Brush border membranes were prepared from the rat small intestine according to the method of Kessler et al., and were assayed at pH 6.8 for rat intestinal maltase using maltose. For rat intestinal maltase, porcine kidney trehalase, and A. niger amyloglucosidase activities, the reaction mixture contained maltose ([…]) and the appropriate amount of enzyme, and the incubations were performed for 10–30 min at 37 °C. The reaction was stopped by heating at 100 °C for 3 min. After centrifugation (600 g; 10 min), the resulting reaction mixture was added to the Glucose CII-test Wako (Wako Pure Chemical Ind., Osaka, Japan). The absorbance at 505 nm was measured to determine the amount of the released D-glucose. Other glycosidase activities were determined using an appropriate para-nitrophenyl glycoside as substrate at the optimum pH of each enzyme. The reaction mixture contained the substrate ([…]) and the appropriate amount of enzyme. The reaction was stopped by the addition of Na2CO3 ([…]). The released para-nitrophenol was measured spectrometrically at 400 nm. All reactions were run in […].

In data set [2] the test system is T1, trehalase (porcine kidney).
T1 construct: purchased Sigma-Aldrich; host or cells: porcine kidney
The experiment in a line: Glycosidase inhibition (Table 2 panel). The format is biochemical.
Source text: as §1, §2

Data set [3] has as its system T2, α-D-galactosidase (coffee beans).
T2 construct: purchased Sigma-Aldrich; host or cells: coffee beans
The experiment in a line: Glycosidase inhibition (Table 2 panel). In kind it is biochemical.
Source text: as §1, §2

Data set [4] has as its system α-D-glucosidase (rat intestinal maltase). The experiment in a line: Glycosidase inhibition (Table 2 panel). In kind it is biochemical.
Source text: as §1, §2

The subject of data set [5] is T3, α-D-mannosidase (Jack bean).
T3 construct: purchased Sigma-Aldrich; host or cells: Jack bean
The experiment in a line: Glycosidase inhibition (Table 2 panel). The format is biochemical.
Source text: as §1, §2

The test system of data set [6] is α-L-rhamnosidase (P. decumbens). The experiment in a line: Glycosidase inhibition (Table 2 panel). In kind it is biochemical.
Source text: as §1, §2

A further data set concerns β-D-glucosidase (almond). The experiment in a line: Glycosidase inhibition (Table 2 panel). The format is biochemical.
Source text: as §1, §2

The target of data set [7] is T4, β-D-glucosidase (bovine liver) (Bos taurus, UniProt F1MNT6).
T4 sequence (F1MNT6 1-469): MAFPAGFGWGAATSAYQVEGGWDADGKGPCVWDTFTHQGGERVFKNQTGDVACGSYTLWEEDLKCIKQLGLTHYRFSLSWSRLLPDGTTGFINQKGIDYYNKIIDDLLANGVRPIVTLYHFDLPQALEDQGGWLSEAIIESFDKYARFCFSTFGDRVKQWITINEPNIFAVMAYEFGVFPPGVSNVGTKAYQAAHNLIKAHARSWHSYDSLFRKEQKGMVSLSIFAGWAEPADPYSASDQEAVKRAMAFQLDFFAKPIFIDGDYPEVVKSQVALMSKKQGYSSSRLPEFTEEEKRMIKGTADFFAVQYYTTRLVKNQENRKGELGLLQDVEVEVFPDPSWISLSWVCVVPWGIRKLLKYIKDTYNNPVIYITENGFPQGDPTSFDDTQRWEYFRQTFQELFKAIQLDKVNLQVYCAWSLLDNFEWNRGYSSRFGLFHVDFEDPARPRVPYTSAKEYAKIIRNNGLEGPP
The experiment in a line: Glycosidase inhibition (Table 2 panel). The format is biochemical.
Source text: as §1, §2

The next data set deals with β-D-mannosidase (snail). The experiment in a line: Glycosidase inhibition (Table 2 panel). The format is biochemical.
Source text: as §1, §2

The next data set deals with α-D-glucosidase (rice) (Oryza sativa subsp. japonica, UniProt Q653V7). The experiment in a line: Glycosidase inhibition (Table 2 panel). In kind it is biochemical.
Source text: as §1, §2

Another data set has as its system A431 (skin carcinoma). The experiment in a line: Cancer screening, MTT growth inhibition. The format is cell-based. Conditions: for inhibition at 25 µM / GI50: Homo sapiens; for inhibition at 25 µM: A-431, 25 µM of drug, read-out: DOSE SCREEN percentage (%) cell growth inhibition A431 Skin; for GI50: A-431, 72 h, read-out: DOSE RESPONSE GI50 A431 Skin. The method, then:
(§3) For Table 4, all test agents were prepared as stock solutions ([…]) in dimethyl sulfoxide (DMSO) and stored at −20 °C. Cell lines used in the study included HT29 (colorectal carcinoma), A2780 (ovarian carcinoma), H460 (lung carcinoma), A431 (skin carcinoma), MiaPaCa-2 (pancreatic carcinoma), and SMA560 (spontaneous murine astrocytoma), together with MCF10A (non-tumour derived normal breast cell line). Cell line sources: the HT29, H460, and MiaPaCa-2, together with MCF10A were purchased from ATCC. The A2780 and A431 were purchased from the European Collection of Cell Culture (ECACC). All cell lines were incubated in a humidified atmosphere 5% CO2 at 37 °C. The cancer cell lines were maintained in Dulbecco’s modified Eagle’s medium (DMEM; Sigma, Truganina, Australia) supplemented with foetal bovine serum (10%), sodium pyruvate ([…]), penicillin (100 IUmL^−1), streptomycin (100 µg mL^−1), and L-glutamine ([…]).
(§4) Growth inhibition was determined by plating cells in duplicate in medium (100 µL) at a density of 2500–4000 cells per well in 96-well plates. On day 0 (24 h after plating), when the cells are in logarithmic growth, medium (100 µL) with or without the test agent was added to each well. […] Each data point is the mean ± the standard error of the mean (SEM) calculated from three replicates which were performed on separate occasions and separate cell line passages.

In data set [8] the test system is HT29 (colorectal carcinoma). The experiment in a line: Cancer screening, MTT growth inhibition. Conditions: for inhibition at 25 µM / GI50: Homo sapiens; for inhibition at 25 µM: HT-29, 25 µM of drug, read-out: DOSE SCREEN percentage (%) cell growth inhibition HT29 Colon; for GI50: HT-29, 72 h, read-out: DOSE RESPONSE GI50 HT29 Colon. The format is cell-based. As to the method:
as §3, §4

Data set [9] deals with A2780 (ovarian carcinoma). The experiment in a line: Cancer screening, MTT growth inhibition. The format is cell-based. The note with it: for inhibition at 25 µM / GI50: Homo sapiens; for inhibition at 25 µM: A2780, 25 µM of drug, read-out: DOSE SCREEN percentage (%) cell growth inhibition A2780 Ovarian; for GI50: A2780, 72 h, read-out: DOSE RESPONSE GI50 A2780 Ovarian. The method, then:
as §3, §4

In the next data set the test system is H460 (lung carcinoma). The experiment in a line: Cancer screening, MTT growth inhibition. The note with it: for inhibition at 25 µM / GI50: Homo sapiens; for inhibition at 25 µM: NCI-H460, 25 µM of drug, read-out: DOSE SCREEN percentage (%) cell growth inhibition H460 Lung; for GI50: NCI-H460, 72 h, read-out: DOSE RESPONSE GI50 H460 Lung. In kind it is cell-based. As to the method: as §3, §4

The nature of data set [10]: Sample appearance on sample preparation in water. The format is physicochemical. Conditions: 1 mL of water was added to 1 mg solid.

As usually defined, the inhibition is the drop in the measured response relative to a control, in per cent. What is called GI50 is the concentration that inhibits growth by half.

α-D-glucosidase (rice), sequence (Q653V7 34-885): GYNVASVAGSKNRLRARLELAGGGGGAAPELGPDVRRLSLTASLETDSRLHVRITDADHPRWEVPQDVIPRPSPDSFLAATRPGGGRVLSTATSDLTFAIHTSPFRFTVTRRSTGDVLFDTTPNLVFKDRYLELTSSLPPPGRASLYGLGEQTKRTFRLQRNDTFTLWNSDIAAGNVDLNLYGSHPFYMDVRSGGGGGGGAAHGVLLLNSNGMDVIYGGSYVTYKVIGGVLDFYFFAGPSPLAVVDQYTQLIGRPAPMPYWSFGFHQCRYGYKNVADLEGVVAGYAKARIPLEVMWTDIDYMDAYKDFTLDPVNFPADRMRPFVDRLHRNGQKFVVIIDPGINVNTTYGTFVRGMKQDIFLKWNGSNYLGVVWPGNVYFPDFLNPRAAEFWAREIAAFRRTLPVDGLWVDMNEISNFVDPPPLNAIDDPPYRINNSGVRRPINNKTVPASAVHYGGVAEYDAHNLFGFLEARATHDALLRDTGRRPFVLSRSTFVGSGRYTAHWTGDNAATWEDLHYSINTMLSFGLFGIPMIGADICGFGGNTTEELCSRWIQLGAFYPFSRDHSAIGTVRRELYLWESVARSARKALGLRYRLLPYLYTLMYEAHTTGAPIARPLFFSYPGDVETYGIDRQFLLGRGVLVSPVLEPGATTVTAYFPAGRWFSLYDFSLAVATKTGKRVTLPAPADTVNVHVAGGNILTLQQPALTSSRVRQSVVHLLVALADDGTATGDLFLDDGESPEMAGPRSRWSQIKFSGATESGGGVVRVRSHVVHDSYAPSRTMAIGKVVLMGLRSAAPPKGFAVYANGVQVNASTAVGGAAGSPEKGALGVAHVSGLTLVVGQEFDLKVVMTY

Consider `CC1(C)O[C@H]2O[C@H]3[C@@H]([C@H]2O1)N(Cc1cccc(B(O)O)c1)C[C@H]3O` [meta 5, N-(3-Methylphenylboronic acid)-3,6-dideoxy-3,6-imino-1,2-O-isopropylidene-α-D-glucofuranose], for which the “inhibition % β-D-Glucuronidase Bovine Liver” value in data set [1] (at 100 μM) is “^cNI ^d(2.9%)”. Moreover, the “inhibition % Trehalase Porcine Kidney” value in [2] (at 100 μM) is listed as “^cNI ^d(0%)”. Further, the “inhibition % α-D-Galactosidase Coffee Beans” value in data set [3] (at 100 μM) is “^cNI ^d(1.5%)”. Besides, the “inhibition % α-D-Glucosidase Rat Intestinal Maltase” value in data set [4] (at 100 μM) is “^cNI ^d(0%)”. In addition, the “inhibition % α-D-Mannosidase Jack Bean” value in data set [5] (at 100 μM) is “^cNI ^d(6.3%)”. The “inhibition % α-L-Rhamnosidase P. decumbens” value in data set [6] (at 100 μM) is reported as “^cNI ^d(0.6%)”. In addition, in the data set with β-D-glucosidase (almond) (at 100 μM), the “inhibition % β-D-Glucosidase Almond” value is listed as “^cNI ^d(0%)”. Moreover, the figures for the inhibition at 100 µM (in [7]; at α-D-glucosidase (rice)) were 23% and 0%, respectively. In addition, the “inhibition % β-D-Mannosidase Snail” value with β-D-mannosidase (snail) (at 100 μM) is “^cNI ^d(2.3%)”. The inhibition at 25 µM in the data set with A431 (skin carcinoma) (72 h) was 8 ± 8%; in [8] (72 h) it was below 0%; in data set [9] (72 h), 32 ± 7%; in the data set with H460 (lung carcinoma) (72 h), 10 ± 2%. The GI50 (in the data set on A431 (skin carcinoma); in data set [8]; in [9]; with H460 (lung carcinoma)) was above 50 µM each time. The “Sample Appearance” value in data set [10] is on record as “In solution”.
Take `OB(O)c1ccccc1CN1C[C@@H](O)[C@H]2OC(O)[C@H](O)[C@H]21` (stereo partly drawn) [ortho 3, N-(2-Methylphenylboronic acid)-3,6-dideoxy-3,6-imino-D-gulofuranose]: the “inhibition % β-D-Glucuronidase Bovine Liver” value in data set [1] (at 100 μM) was “^cNI ^d(2.9%)”; in [1] (at 1000 μM) it was “^aNI ^b(6.6%)”. The “inhibition % Trehalase Porcine Kidney” value in data set [2] (at 100 μM) is reported as “^cNI ^d(0%)”; in data set [2] (at 1000 μM), “^aNI ^b(0%)”. Besides, the “inhibition % α-D-Galactosidase Coffee Beans” value in data set [3] (at 100 μM) was “^cNI ^d(0%)”; in data set [3] (at 1000 μM), “^aNI ^b(0%)”. The “inhibition % α-D-Glucosidase Rat Intestinal Maltase” value in data set [4] (at 100 μM) was “^cNI ^d(0%)”; in [4] (at 1000 μM), “^aNI ^b(0.7%)”. Besides, the figures for the “inhibition % α-D-Mannosidase Jack Bean” value in data set [5] (at 100 μM) and in data set [5] (at 1000 μM) were “^cNI ^d(3.8%)” and “^aNI ^b(0%)”, respectively. The “inhibition % α-L-Rhamnosidase P. decumbens” value is recorded as “^cNI ^d(0%)” in data set [6] (at 100 μM) and “^aNI ^b(3.2%)” in data set [6] (at 1000 μM). Besides, the “inhibition % β-D-Glucosidase Almond” value in the data set on β-D-glucosidase (almond) (at 100 μM) is given as “^cNI ^d(13.7%)”; with β-D-glucosidase (almond) (at 1000 μM), “^aNI ^b(38.8%)”. Besides, the inhibition at 100 µM (in data set [7]; at α-D-glucosidase (rice)) was 0% each time. The “inhibition % β-D-Mannosidase Snail” value with β-D-mannosidase (snail) (at 100 μM) is “^cNI ^d(0%)”; in the data set on β-D-mannosidase (snail) (at 1000 μM) it was “^aNI ^b(0%)”. Besides, the inhibition at 1000 µM on α-D-glucosidase (rice) (at 1000 μM) came out at 0%. Also, the inhibition at 25 µM in the data set on A431 (skin carcinoma) (72 h) is 3 ± 1%; in data set [8] (72 h), below 0%; in [9] (72 h), 17 ± 2%; in the data set on H460 (lung carcinoma) (72 h) it was 2 ± 1%. Besides, the GI50 (with A431 (skin carcinoma); in data set [8]; in data set [9]; in the data set with H460 (lung carcinoma)) was above 50 µM in each case. The “Sample Appearance” value in data set [10] is listed as “In solution”.
Take “Borocaptate sodium [BSH, reference compound]”: in data set [1] (at 1000 μM), the “inhibition % β-D-Glucuronidase Bovine Liver” value is recorded as “^aNI ^b(19.6%)”. Also, in [2] (at 1000 μM), the “inhibition % Trehalase Porcine Kidney” value is recorded as “^aNI ^b(4.2%)”. Besides, in [3] (at 1000 μM), the “inhibition % α-D-Galactosidase Coffee Beans” value was “^aNI ^b(12.3%)”. Moreover, in data set [4] (at 1000 μM), the “inhibition % α-D-Glucosidase Rat Intestinal Maltase” value is listed as “^aNI ^b(0%)”. Also, in data set [5] (at 1000 μM), the “inhibition % α-D-Mannosidase Jack Bean” value is on record as “^aNI ^b(7.9%)”. Besides, in [6] (at 1000 μM), the “inhibition % α-L-Rhamnosidase P. decumbens” value is recorded as “^aNI ^b(0.2%)”. The “inhibition % β-D-Glucosidase Almond” value in the data set on β-D-glucosidase (almond) (at 1000 μM) is “^aNI ^b(0%)”. Also, the “inhibition % β-D-Glucosidase Bovine Liver” value in data set [7] (at 1000 μM) is reported as “^aNI ^b(15%)”. The “inhibition % β-D-Mannosidase Snail” value in the data set on β-D-mannosidase (snail) (at 1000 μM) is reported as “^aNI ^b(19.2%)”. In addition, the “inhibition % α-D-Glucosidase Rice” value on α-D-glucosidase (rice) (at 1000 μM) is on record as “^aNI ^b(0%)”. Also, in the data set with A431 (skin carcinoma) (25 µM of drug, 72 h), the “DOSE SCREEN percentage (%) cell growth inhibition A431 Skin” value was “* <0%”. Further, the “DOSE SCREEN percentage (%) cell growth inhibition HT29 Colon” value in data set [8] (25 µM of drug, 72 h) is on record as “* 3 ± 2%”. Also, the “DOSE SCREEN percentage (%) cell growth inhibition A2780 Ovarian” value in [9] (25 µM of drug, 72 h) is “* 2 ± 5%”. For the same compound, in the data set with H460 (lung carcinoma) (25 µM of drug, 72 h), the “DOSE SCREEN percentage (%) cell growth inhibition H460 Lung” value is “* 8 ± 2%”. The “Sample Appearance” value in data set [10] is recorded as “In solution”.
